Laboratory results published in the supplement of paper PMC10307832.

Experiments:
Assay in all cases: relative viability (nuclei count vs DMSO), 5 days (fraction); higher = more cells survive
[1] = compound: C1/C(=C\C2=CC=CS2)/C(=O)/C(=C/C3=CC=CS3)/C1 + CC(C)C[C@H](NC(=O)[C@H](Cc1ccccc1)NC(=O)c1cnccn1)B(O)O [Bortezomib] (partner 0.002 µM)
Summary of the method: (§1)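 Relative viability is defined as nuclei in treated wells over nuclei in vehicle wells. Duplicate plates were run and medians reported. Lung cancer cell lines in 1536-well plates were dosed by pin tool one day after seeding, with one drug or with a fixed anchor-drug dose plus five library-drug doses (not always all listed) in √10 steps, and nuclei were counted after 5 days.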

[2] = compound: C[C@]12O[C@H](C[C@]1(O)CO)n1c3ccccc3c3c4c(c5c6ccccc6n2c5c31)CNC4=O [Lestaurtinib] + CCNC(=O)c1noc(-c2cc(C(C)C)c(O)cc2O)c1-c1ccc(CN2CCOCC2)cc1 [Luminespib] (partner 0.01 µM)
Summary of the method: as §1

[3] = compound: C1/C(=C\C2=CC=CS2)/C(=O)/C(=C/C3=CC=CS3)/C1 + C[C@@H](Oc1cc(-c2cnn(C3CCNCC3)c2)cnc1N)c1c(Cl)ccc(F)c1Cl [Crizotinib] (partner 1 µM)
Summary of the method: as §1

[4] = compound: C1=CC(=CC=C1C2=CC(=C(S2)NC(=O)N)C(=O)N)F [TPCA-1] + Nc1ncn([C@H]2C[C@H](O)[C@@H](CO)O2)c(=O)n1 [Decitabine] (partner 2 µM)
Summary of the method: as §1

Row | Cell Line | relative viability ([1]; first compound 0.2 µM) | relative viability ([1]; first compound 0.6325 µM) | relative viability ([1]; first compound 2 µM) | relative viability ([1]; first compound 6.325 µM) | relative viability ([1]; first compound 20 µM) | relative viability ([2]; first compound 0.005 µM) | relative viability ([2]; first compound 0.01581 µM) | relative viability ([2]; first compound 0.05 µM) | relative viability ([2]; first compound 0.1581 µM) | relative viability ([2]; first compound 0.5 µM) | relative viability ([3]; first compound 0.2 µM) | relative viability ([3]; first compound 0.6325 µM) | relative viability ([3]; first compound 2 µM) | relative viability ([3]; first compound 6.325 µM) | relative viability ([3]; first compound 20 µM) | relative viability ([4]; first compound 0.04 µM) | relative viability ([4]; first compound 0.1265 µM) | relative viability ([4]; first compound 0.4 µM) | relative viability ([4]; first compound 1.265 µM) | relative viability ([4]; first compound 4 µM)
1 | NCI-H650 | 0.974 | 0.849 | 0.961 | 1.02 | 0.768 | 0.824 | 0.703 | 0.635 | 0.322 | 0.239 | 0.658 | 0.921 | 0.632 | 0.893 | 0.768 | 0.347 | 0.359 | 0.338 | 0.331 | 0.3
2 | EKVX | 1.11 | 1.02 | 1.12 | 0.933 | 1.1 | 0.951 | 0.876 | 0.999 | 0.821 | 0.541 | 1.01 | 0.982 | 0.922 | 0.929 | 0.926 | 0.366 | – | 0.383 | 0.316 | 0.345
3 | NCI-H460 | 1.12 | 1.26 | 1.17 | – | 1.09 | 0.0333 | 0.0274 | 0.0352 | 0.0238 | 0.0199 | 0.813 | 1.17 | 0.958 | – | 0.835 | 0.521 | 0.461 | – | 0.453 | 0.476
4 | LCLC-97TM1 | 0.777 | 0.501 | 0.737 | 0.43 | 0.565 | 0.71 | 0.678 | 0.363 | 0.62 | 0.233 | 0.328 | 0.433 | 0.453 | 0.252 | 0.462 | 0.274 | 0.23 | 0.214 | 0.247 | 0.243
5 | COR-L23 | 1.12 | 0.983 | 0.978 | 0.946 | 1.01 | 0.558 | 0.756 | 0.226 | 0.288 | 0.164 | 0.536 | 0.69 | 0.639 | 0.592 | 0.633 | 0.498 | 0.394 | 0.466 | 0.385 | 0.403
6 | NCI-H1355 | 1.21 | 1.2 | 1.21 | 1.1 | 1.14 | 0.646 | 0.625 | 0.455 | 0.493 | 0.261 | 1.19 | 1.05 | 1.03 | 0.943 | 1.08 | 0.365 | 0.35 | 0.342 | 0.346 | 0.354
7 | NCI-H1666 | 0.724 | 0.67 | 0.643 | 0.559 | 0.666 | 1.05 | 1.14 | 1.46 | 0.959 | 0.609 | 1.23 | 1.19 | 1.09 | 0.643 | 0.974 | 0.711 | 0.607 | 0.743 | 0.695 | 0.707
8 | EPLC-272H | 0.957 | 0.903 | 0.93 | 1.01 | 0.839 | 0.196 | 0.235 | 0.184 | 0.241 | 0.133 | 1 | 0.885 | 1.01 | 0.797 | 0.735 | 0.458 | 0.318 | 0.41 | 0.372 | 0.382
9 | ChaGo-K-1 | 0.998 | 0.934 | 0.967 | 0.559 | 0.517 | 0.62 | 0.706 | 0.698 | 0.479 | 0.223 | 1.16 | 1.23 | 1.08 | 1.05 | 0.76 | 0.49 | 0.453 | 0.565 | 0.499 | 0.321
10 | NCI-H1651 | 0.876 | 0.995 | 0.916 | 0.914 | 0.925 | 0.866 | 0.938 | 0.897 | 0.806 | 0.461 | 0.863 | 0.876 | 0.893 | 0.816 | 0.855 | 0.66 | 0.578 | 0.578 | 0.546 | 0.217
11 | HCC-44 | 0.911 | 0.851 | 0.844 | 0.801 | 0.923 | 1.14 | 1.22 | 0.623 | 0.873 | 0.308 | 0.802 | 0.862 | 0.712 | 0.734 | 0.798 | 1.1 | 0.841 | 0.908 | 0.879 | 0.887
12 | SW 1573 | 0.985 | 1 | 1.09 | 0.834 | 0.949 | 0.218 | 0.236 | 0.182 | 0.315 | 0.131 | 0.778 | 0.693 | 0.889 | 0.749 | 0.895 | 0.621 | 0.402 | 0.438 | 0.677 | 0.395
13 | PC-3 [JPC-3] | 0.845 | 0.956 | 0.88 | 0.76 | 0.884 | 0.647 | 0.645 | 0.53 | 0.525 | 0.255 | 0.978 | 0.997 | 0.944 | 0.859 | 1 | 0.862 | 0.916 | 0.838 | 0.813 | 0.818
14 | LOU-NH91 | 0.472 | 0.528 | 0.459 | 0.327 | 0.493 | 0.341 | 0.262 | 0.254 | 0.301 | 0.224 | 0.739 | 0.572 | 0.743 | 0.679 | 0.714 | 0.835 | 0.749 | 0.793 | 0.792 | 0.776
15 | PC-14 | 0.904 | 0.763 | 0.837 | 0.742 | 0.98 | 0.154 | 0.154 | 0.172 | 0.108 | 0.151 | 0.995 | 0.838 | 0.819 | 0.725 | 0.956 | 0.265 | 0.24 | 0.231 | 0.255 | 0.323
16 | NCI-H2087 | 0.922 | 0.742 | 0.963 | 0.512 | 0.73 | 0.158 | 0.253 | 0.163 | 0.148 | 0.165 | 0.867 | 0.901 | 0.746 | 0.735 | 0.993 | 0.255 | 0.222 | 0.311 | 0.335 | 0.152
17 | LU99A | 1.21 | 1.13 | 1.26 | 0.668 | 0.941 | 0.235 | 0.245 | 0.221 | 0.249 | 0.185 | 0.539 | 0.665 | 0.625 | 0.466 | 0.562 | 0.923 | 0.76 | 0.901 | 0.834 | 0.377
18 | BEN | 0.719 | 1.04 | 1.01 | 0.68 | 0.719 | 0.249 | 0.298 | 0.278 | 0.326 | 0.213 | 0.941 | 0.947 | 1.02 | 0.861 | 0.706 | 0.875 | 0.625 | 0.813 | 0.838 | 0.387
19 | SK-LU-1 | 1.33 | 1.07 | 1.68 | 1.13 | 1.28 | 0.206 | 0.22 | 0.177 | 0.203 | 0.215 | 1.12 | 1.03 | 0.925 | 0.763 | 0.923 | 0.72 | 0.563 | 0.627 | 0.493 | 0.372
20 | NCI-H1975 | 0.435 | 0.421 | 0.361 | 0.334 | 0.367 | 0.538 | 0.171 | 0.199 | 0.137 | 0.159 | 0.988 | 0.957 | 1.02 | 0.718 | 0.971 | 0.393 | 0.343 | 0.403 | 0.387 | 0.188
21 | RERF-LC-KJ | 1.07 | 1.14 | 1.04 | 0.912 | 1.13 | 1.1 | 1.55 | 0.828 | 0.959 | 0.417 | 0.794 | 0.843 | 0.832 | 0.763 | 0.754 | 0.715 | 0.598 | 0.656 | 0.612 | 0.548
22 | NCI-H441 | 0.617 | 0.516 | 0.351 | 0.447 | 0.482 | 0.375 | 0.277 | 0.329 | 0.399 | 0.409 | 0.967 | 0.786 | 1.06 | 0.729 | 0.604 | 0.252 | 0.247 | 0.229 | 0.48 | 0.239
23 | LCLC-103H | 1.1 | 0.998 | 1.08 | 1 | 1.07 | 1.04 | 1.08 | 0.767 | 0.501 | 0.34 | 1.09 | 1.03 | 1.08 | 0.906 | 1.03 | 0.716 | 0.719 | 0.772 | 0.788 | 0.811
24 | NCI-H1915 | 0.982 | 0.97 | 1.02 | 0.908 | 0.895 | 0.766 | 0.893 | 0.471 | 0.663 | 0.259 | 0.86 | 0.951 | 0.912 | 0.841 | 0.893 | 0.266 | 0.253 | 0.258 | 0.255 | 0.251
